# Source: US9238659B2, “Method of using binuclear gold (I) compounds for cancer treatment” (University of Hong Kong, priority 2012, dated 2016)
# How the values were obtained:
# [1] = tested on: H1975; assay: MTT cytotoxicity assay, H1975; assay type: cell-based, human; conditions: 72 h of incubation
# [2] = tested on: human nasopharyngeal carcinoma (SUNE1); assay: MTT cytotoxicity assay, SUNE1; assay type: cell-based; conditions: 72 h of incubation
# [3] = tested on: lung carcinoma (HCC827); assay: MTT cytotoxicity assay, HCC827; assay type: cell-based, human; conditions: 72 h of incubation
# [4] = tested on: breast carcinoma (MCF-7); assay: MTT cytotoxicity assay, MCF-7; assay type: cell-based, human; conditions: 72 h of incubation
# [5] = tested on: cervical epithelioid carcinoma (HeLa); assay: MTT cytotoxicity assay, HeLa; assay type: cell-based, human; conditions: 72 h of incubation
# [6] = tested on: human nasopharyngeal carcinoma (HONE1); assay: MTT cytotoxicity assay, HONE1; assay type: cell-based; conditions: 72 h of incubation
# [7] = tested on: hepatocellular carcinoma (HepG2); assay: MTT cytotoxicity assay, HepG2; assay type: cell-based, human; conditions: 72 h of incubation
# [8] = Reactivity towards physiological thiols (ESI-MS monitoring of reaction with GSH); assay type: physicochemical; conditions: GSH […]10^−5M or 5×10^−5M, about 45 min
# Description: FIGS. 6A-C show stability tests: (A) UV/vis absorption of 1 in PBS (containing 5% acetonitrile, v/v) at different time point; (B) Linear response of ESI-MS intensity of 1 versus concentration; (C) Kinetics analysis of reaction of 1 with GSH, auranofin was used as a reference compound. Unreacted compound percentage was calculated by combined MS intensity of each 10 scans at different time point then divided by pre-determined MS intensity of initial concentration. It was believed that high reactivity of the gold(I) anticancer drugs towards physiological thiols may fail the drugs targeting to the solid tumor tissue thus hamper the application for in vivo cancer treatment. As a result, high resolution ESI-MS was applied to monitor the reaction of 1 with thiol-containing GSH.
smiles,measurement,setting,value
"CCN(CC)C1=[S+][Au-][P+](c2ccccc2)(c2ccccc2)C[P+](c2ccccc2)(c2ccccc2)[Au-][S]1.O=S(=O)(O)C(F)(F)F [Compound 4, [Au2-dppm-dedt] (OTf)]",IC50,[1],< 0.19 µM
same,IC50,[2],1.62 ± 0.44 µM
same,IC50,[3],0.48 ± 0.06 µM
same,IC50,[4],0.5 ± 0.06 µM
same,IC50,[5],0.63 µM
same,IC50,[6],0.59 ± 0.04 µM
same,IC50,[7],0.95 ± 0.58 µM
"CC(=O)OC[C@H]1O[C@@H]([S-])[C@H](OC(C)=O)[C@@H](OC(C)=O)[C@@H]1OC(C)=O.CCP(CC)CC.[Au+] [auranofin, reference compound]",reaction towards GSH (reference compound),[8],fast reaction towards GSH
"CCN(CC)C1=[S+][Au-][P+](C2CCCCC2)(C2CCCCC2)C[P+](C2CCCCC2)(C2CCCCC2)[Au-][S]1.O=S(=O)(O)C(F)(F)F [Compound 3, [Au2-dcpm-dedt] (OTf)]",IC50,[2],0.67 ± 0.28 µM
same,IC50,[4],0.41 ± 0.2 µM
same,IC50,[5],< 0.39 µM
same,IC50,[6],0.41 ± 0.07 µM
same,IC50,[7],0.54 ± 0.07 µM
